“Also recorded” adds a separate entry of the source. Read-outs that look alike come from different tables or passages of the source. *1 amine or outer side, *2 acyl side, *3 side chain or, on linkers, in order; H or OH if unused. Where a SMILES comes first, the peptide text is derived from it. Bridges are numbered along the chain shown (N, C = ends). Roman numbers before positions name the chains, in order. Where no end group is shown, it is not given here. [ ]: non-standard residue; d: D form. Actinocin(9to1) = Cc1c2oc3c(C)ccc(C(=O)[*:1])c3nc-2c(C(=O)[*:2])c(N)c1=O; NMeV = CN[C@H](C(=O)O)C(C)C; Sar = CNCC(=O)O
What was measured:
human monocytes / K562 = experiment: Human monocyte cytotoxicity assay (MCF assay), 111In-Ox labeled K562 targets; type: cell-based; details: for monocyte cytotoxicity inducing activity (in words) / concentration at which the peptide activates human blood monocytes for cytotoxicity: K562 target; for concentration at which the peptide activates human blood monocytes for cytotoxicity: purified peptide, monocytes of eight human donors
Description: FIG. 1. Hybrid cells were adjusted to 1×10^6 /ml and stimulated with 8 ug/ml PHA(+). […] to control (-) cultures, and both supernatants harvested by centrifugation. Monocyte cytotoxicity was measured as described herein with the exception that the monocyte monolayer was incubated overnight to allow for decay of NK cell activity. The monolayer was incubated for a second 24 hr period with dilutions of MCF containing supernatants. Dilutions represented are 1/4 in a total test volume of 0.2 ml. […] Microtiter plates were centrifuged 16 hrs later, and supernatants collected and counted. % specific release was calculated as described herein.
Only healthy volunteer donors were used. All volunteer donors signed an informed consent, and the protocol was approved by the Committee for the Protection of Human Subjects, University of Texas Health Science Center. Mononuclear cells were prepared by centrifugation over Ficoll/Hypaque. […] The monolayer was incubated overnight to allow for decay of residual natural killer activity before addition of lymphokine preparations on day 2.
The effector to target ratio was 30:1. […] After 18 hrs incubation of monocyte monolayer with target, the plates were centrifuged and supernatant was removed and cpms were counted in a Beckman Biogamma 2000. Specific release was calculated as described by Wiltrout, supra. […] Other tumor targets used were HL-60, L5178Y and TU5 (Table V).

FtF3 cells = experiment: Effects of metabolic inhibitors and tunicamycin on MCF production; type: cell-based, human; details: for biological activity of MCF after biosynthesis in the presence of the agent: tunicamycin 0, 1, 2.5 or 5.0 ug/ml; for effect on MCF production of PHA-stimulated FtF3 cells: cells incubated 4 h with inhibitor (0 to 100 ug/ml), washed, PHA 24 h; for effect on MCF production of nonstimulated (non-PHA treated) cells: puromycin at doses of 10-50 ug/ml
Description: FIG. 2. FtF3 cells were incubated 4 h with various doses of actinomycin D. Cells were washed and stimulated with PHA for 24 h before harvesting supernatants by centrifugation, extensive dialysis, and bioassay.( ) One set of each dose of inhibitor-treated cells was labelled with ^3 H-uridine, stimulated, lysed and harvested 24 h later, and counted by liquid scintillation.(.quadrature.) Viability of FtF3 at 24 h was greater than 80% at all doses tested.
FIG. 3. FtF3 cells were incubated 4 h with various doses of cycloheximide. Cells were washed and stimulated with PHA for 24 h before harvesting supernatants by centrifugation, extensive dialysis, and bioassay.( ) One set of each dose of inhibitor-treated cells was labelled with 3 H-amino acids, stimulated, TCA-precipitated 24 h later, and counted by liquid scintillation.(.quadrature.) Viability of FtF3 at 24 h was greater than 80% at all doses tested.
FIG. 4. FtF3 cells were incubated 4 h with various doses of puromycin. Cells were washed and resuspended either with ( ) or without (.quadrature.) PHA, and incubated 24 h before harvesting supernatants by centrifugation, extensive dialysis, and bioassay. Viability of FtF3 at 24 h was greater than 80% at all doses tested.
Urea treatment was accomplished by adding 3 grams of solid urea to 10 ml MCF (28.5 U/ml) (5M urea final). Extraction of MCF with butanol-diisopropyl ether was performed. FtF3 cells were cultured with 0, 1, 2.5 or 5.0 ug/ml tunicamycin. […] MCF supernatants were extracted with butanol-diisopropyl ether; the aqueous phase contained 36.7% less MCF than the control preparation.
FtF3 cells at a concentration of 1×10^6 /ml in RPMI 1640/10% FCS were incubated 4 hours with either actinomycin D, cycloheximide, or puromycin (all at 0 to 100 ug/ml, Sigma). Tests for viability after treatment were performed by trypan blue exclusion and supernatants were collected by centrifugation. In a second set of experiments FtF3 cells at the same concentration but using 0.1% human serum were incubated for 5 hours with either cycloheximide or puromycin. Uptake experiments were performed by adjusting FtF3 cells to 1×10^6 /ml in media after treatment with inhibitor, and adding either 5,6-^3 H-uridine (ICN Radiochemicals, Irvine, Calif., USA, […]) to actinomycin D treated cells or ^3 H L-amino acid mixture (25.5 mci/mg) to cycloheximide-treated cells at 1 uCi to 1×10^5 cells. Cells were subsequently lysed and counted by liquid scintillation.

[1] = Enzyme treatment of MCF supernatants; type: physicochemical; details: in contrast to MCF
Description: In order to treat MCF supernatants with enzymes, 10 ml of the supernatant (28.5 units/ml) were treated with 1 mg/ml trypsin at pH 7.4, 1 mg/ml chymotrypsin at pH 7.4, 0.5 mg/ml DNase at pH 7.4, or 40 units/ml RNase at pH 5 for 1 hour at 25° C. […] The experiments were repeated using insolubilized enzymes to minimize the possibility that enzymes could be carried over into the bioassay and could explain the results.

[2] = all doses tested, trypan blue exclusion

IFN-α [reference compound]
% specific lysis (human monocytes / K562; cytokine added at 1 U/ml): 4.5 ± 3.0% | % specific lysis (human monocytes / K562; cytokine added at 10 U/ml): -5.4 ± 9.2% | % specific lysis (human monocytes / K562; cytokine added at 100 U/ml): -2.1 ± 12.4% | % specific lysis (human monocytes / K562; cytokine added at 1000 U/ml): -8.9 ± 8.8%

OCCS [2-mercaptoethanol]
biological activity of MCF after biosynthesis in the presence of the agent (FtF3 cells): no significant change

tunicamycin
biological activity of MCF after biosynthesis in the presence of the agent (FtF3 cells): no significant change

Leu Glu Asp Ser Gln (LEDSQ) [MJ-5]
monocyte cytotoxicity inducing activity (in words) (human monocytes / K562): critical for biological activity

Gly Ala Ala Val Leu (GAAVL; printed: Gly Ala Ala Val Leu) [MJ-3, truncated five-mer, native 5 N-terminal amino acids of P29]
monocyte cytotoxicity inducing activity (in words) (human monocytes / K562): not determined to be above the background for the assay | monocyte cytotoxicity inducing activity (in words) (human monocytes / K562; listed as MJ3): did not reliably exhibit biological activity | specific release of label (human monocytes / K562; one experiment, input of 10^2 mg of protein): 25%

GAAVLENSQ [MJ-1]
monocyte cytotoxicity inducing activity (in words) (human monocytes / K562): capable of inducing human monocyte cytotoxicity; also recorded: found to have biological MCF activity | decrease in the biological activity of the peptide by the substitution, versus MJ-2 (human monocytes / K562; parallel assays, same human donors): ~3 log fold | concentration at which the peptide activates human blood monocytes for cytotoxicity (human monocytes / K562): 10^-6 M

C[C@@H]1C[C@@H]([C@H](O)CC2CC(=O)NC(=O)C2)C(=O)[C@@H](C)C1 [cycloheximide]
lectin-induced MCF production with inhibitor present for the entire incubation period (FtF3 cells): not suppressed | Viability of FtF3 at 24 h (FtF3 cells; [2]): greater than 80% | effect on MCF production of PHA-stimulated FtF3 cells (FtF3 cells): suppressed but did not abolish | effect on MCF production of nonstimulated (non-PHA treated) cells (FtF3 cells): only a slight stimulatory effect

GM-CSF: recombinant GM-CSF [reference compound]
% specific lysis (human monocytes / K562; cytokine added at 50 U/ml): -2.5 ± 15.9% | % specific lysis (human monocytes / K562; cytokine added at 100 U/ml): 5.7 ± 3.1% | % specific lysis (human monocytes / K562; cytokine added at 200 U/ml): -0.6 ± 4.9%

GAAVLEDSQ [MJ-2]
monocyte cytotoxicity inducing activity (in words) (human monocytes / K562): exhibits the same high level activity as the intact protein of 29kD; also recorded: capable of activating human blood monocytes for tumor cytotoxicity; also recorded: to a similar extent as the intact protein of 29kD | concentration at which the peptide activates human blood monocytes for cytotoxicity (human monocytes / K562): approximately 10^-9 M

rIL1β: recombinant IL 1 beta (Cistron Biotechnology) [reference compound]
% specific lysis (human monocytes / K562; cytokine added at 0.1 U/ml): -8.7 ± 2.8% | % specific lysis (human monocytes / K562; cytokine added at 1 U/ml): -4.9 ± 4.6% | % specific lysis (human monocytes / K562; cytokine added at 10 U/ml): -1.8 ± 9.6%

Cc1c2oc3c(C)ccc(C(=O)N[C@@H]4C(=O)N[C@H](C(C)C)C(=O)N5CCC[C@H]5C(=O)N(C)CC(=O)N(C)[C@@H](C(C)C)C(=O)O[C@@H]4C)c3nc-2c(C(=O)N[C@@H]2C(=O)N[C@H](C(C)C)C(=O)N3CCC[C@H]3C(=O)N(C)CC(=O)N(C)[C@@H](C(C)C)C(=O)O[C@@H]2C)c(N)c1=O [actinomycin D] (I: T[dV]P[Sar][NMeV] / II: T[dV]P[Sar][NMeV]; ester I:1-I:C, II:1-II:C; linker I:N-II:N via Actinocin(9to1))
Viability of FtF3 at 24 h (FtF3 cells; [2]): greater than 80% | effect on MCF production of PHA-stimulated FtF3 cells (FtF3 cells): totally suppressed | effect on MCF production of nonstimulated (non-PHA treated) cells (FtF3 cells): no effect

COc1ccc(C[C@H](N)C(=O)N[C@H]2[C@@H](O)[C@H](n3cnc4c(N(C)C)ncnc43)O[C@@H]2CO)cc1 [puromycin]
Viability of FtF3 at 24 h (FtF3 cells): greater than 80% | lectin-induced MCF production with inhibitor present for the entire incubation period (FtF3 cells): suppressive in a dose-dependent manner | effect on MCF production of PHA-stimulated FtF3 cells (FtF3 cells): suppressed but did not totally abolish | effect on MCF production of nonstimulated (non-PHA treated) cells (FtF3 cells): appeared to stimulate

B1: m-CSF: purified m-CSF (protein, UniProt P09603 33-554, looked up)
Macrophage colony-stimulating …: EEVSEYCSHMIGSGHLQSLQRLIDSQMETSCQITFEFVDQEQLKDPVCYLKKAFLLVQDIMEDTMRFRDNTPNAIAIVQLQELSLRLKSCFTKDYEEHDKACVRTFYETPLQLLEKVKNVFNETKNLLDKDWNIFSKNCNNSFAECSSQDVVTKPDCNCLYPKAIPSSDPASVSPHQPLAPSMAPVAGLTWEDSEGTEGSSLLPGEQPLHTVDPGSAKQRPPRSTCQSFEPPETPVVKDSTIGGSPQPRPSVGAFNPGMEDILDSAMGTNWVPEEASGEASEIPVPQGTELSPSRPGGGSMQTEPARPSNFLSASSPLPASAKGQQPADVTGTALPRVGPVRPTGQDWNHTPQKTDHPSALLRDPPEPGSPRISSLRPQGLSNPSTLSAQPQLSRSHSSGSVLPLGELEGRRSTRDRRSPAEPEGGPASEGAARPLPRFNSVPLTDTGHERQSEGSFSPQLQESVFHLLVPSVILVLLAVGGLLFYRWRRRSHQEPQRADSPLEQPEGSPLTQDDRQVELPV
% specific lysis (human monocytes / K562; cytokine added at 17.3 U/ml): 26.0 ± 6.5% | % specific lysis (human monocytes / K562; cytokine added at 173 U/ml): 14.5 ± 4.6% | % specific lysis (human monocytes / K562; cytokine added at 1730 U/ml): -3.9 ± 4.7%

B2: eIL1α: recombinant IL 1 alpha (Cistron Biotechnology) (protein, UniProt P01583 113-271, looked up)
Interleukin-1 alpha: SAPFSFLSNVKYNFMRIIKYEFILNDALNQSIIRANDQYLTAAALHNLDEAVKFDMGAYKSSKDDAKITVILRISKTQLYVTAQDEDQPVLLKEMPEIPKTITGSETNLLFFWETHGTKNYFTSVAHPNLFIATKQDYWVCLAGGPPSITDFQILENQA
% specific lysis (human monocytes / K562; cytokine added at 0.1 U/ml): -4.1 ± 4.1% | % specific lysis (human monocytes / K562; cytokine added at 1 U/ml): -3.6 ± 5.6% | % specific lysis (human monocytes / K562; cytokine added at 10 U/ml): -0.7 ± 7.6%

B3: IFN-γ: human gamma interferon (protein, UniProt P01579 24-161, looked up)
Interferon gamma: QDPYVKEAENLKKYFNAGHSDVADNGTLFLGILKNWKEESDRKIMQSQIVSFYFKLFKNFKDDQSIQKSVETIKEDMNVKFFNSNKKKRDDFEKLTNYSVTDLNVQRKAIHELIQVMAELSPAAKTGKRKRSQMLFRG
effect of trypsin [1]: inactivated | monocyte cytotoxicity inducing activity (in words) (human monocytes / K562): only slight activity | increase in specific lysis (human monocytes / K562; amounts up to 1000 U/ml final concentration): 6.2% | % specific lysis (human monocytes / K562; cytokine added at 10 U/ml): -3.5 ± 1.1% | % specific lysis (human monocytes / K562; cytokine added at 100 U/ml): 3.4 ± 3.2% | % specific lysis (human monocytes / K562; cytokine added at 1000 U/ml): 6.2 ± 4.4%

— patent publication US5434247A, “Peptides for inducing monocyte cytotoxicity in diagnostics” (Board of Regents, The University of Texas System, priority 1992, dated 1995)
